Source: ChEMBL document CHEMBL1144186, “New iodoreboxetine analogues for SPECT imaging of the noradrenaline transporter” (Bioorg Med Chem Lett, 2008)

Assays:
[1] = Displacement of [3H]nisoxetine from rat brain NAT; assay type: tissue-based
[2] = target: Sodium-dependent dopamine transporter (Rattus norvegicus, UniProt P23977); experiment: Displacement of [3H]WIN-35428 from rat brain DAT; assay type: tissue-based
[3] = target: Sodium-dependent serotonin transporter (Rattus norvegicus, UniProt P31652); experiment: Displacement of [3H]citalopram from rat brain SERT
Chain of Sodium-dependent serotonin transporter (P31652 whole entry): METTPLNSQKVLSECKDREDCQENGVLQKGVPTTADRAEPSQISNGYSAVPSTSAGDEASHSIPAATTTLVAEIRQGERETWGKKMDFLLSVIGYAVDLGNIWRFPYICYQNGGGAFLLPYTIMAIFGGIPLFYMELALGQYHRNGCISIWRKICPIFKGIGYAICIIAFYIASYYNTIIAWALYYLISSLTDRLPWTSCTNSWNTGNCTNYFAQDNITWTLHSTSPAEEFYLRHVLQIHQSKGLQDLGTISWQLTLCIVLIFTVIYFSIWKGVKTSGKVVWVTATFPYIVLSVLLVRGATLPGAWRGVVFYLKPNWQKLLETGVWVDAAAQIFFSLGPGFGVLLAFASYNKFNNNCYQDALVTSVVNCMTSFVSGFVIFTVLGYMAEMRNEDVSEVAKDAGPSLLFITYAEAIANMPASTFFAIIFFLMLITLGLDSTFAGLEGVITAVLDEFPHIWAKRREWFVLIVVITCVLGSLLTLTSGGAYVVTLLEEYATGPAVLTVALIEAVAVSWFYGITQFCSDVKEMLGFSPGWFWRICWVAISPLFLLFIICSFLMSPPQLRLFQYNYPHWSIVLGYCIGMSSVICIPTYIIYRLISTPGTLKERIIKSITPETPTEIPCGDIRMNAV

[4] = species on record: Rattus norvegicus; experiment: Selectivity for rat NAT over rat SERT
[5] = species on record: Rattus norvegicus; experiment: Selectivity for rat NAT over rat DAT

Chain of Sodium-dependent dopamine transporter (P23977 whole entry): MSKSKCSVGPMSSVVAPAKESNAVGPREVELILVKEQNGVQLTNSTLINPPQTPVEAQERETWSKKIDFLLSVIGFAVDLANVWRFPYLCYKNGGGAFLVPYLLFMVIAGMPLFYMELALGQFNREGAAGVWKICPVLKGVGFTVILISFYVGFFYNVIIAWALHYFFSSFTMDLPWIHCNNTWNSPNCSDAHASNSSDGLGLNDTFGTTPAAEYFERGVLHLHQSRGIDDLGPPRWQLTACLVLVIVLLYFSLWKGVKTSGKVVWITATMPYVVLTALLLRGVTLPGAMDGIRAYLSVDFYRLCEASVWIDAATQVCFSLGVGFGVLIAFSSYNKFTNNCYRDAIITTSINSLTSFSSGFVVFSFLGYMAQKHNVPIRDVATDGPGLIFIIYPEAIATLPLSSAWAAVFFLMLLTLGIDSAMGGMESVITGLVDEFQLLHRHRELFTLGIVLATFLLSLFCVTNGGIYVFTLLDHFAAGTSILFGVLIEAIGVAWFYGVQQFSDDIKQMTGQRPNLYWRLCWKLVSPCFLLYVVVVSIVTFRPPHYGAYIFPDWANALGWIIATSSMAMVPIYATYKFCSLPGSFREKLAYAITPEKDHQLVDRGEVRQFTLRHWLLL

Row | Ki [1] | Ki [2] | Ki [3] | Ratio Ki [4] | Ratio Ki [5] | SMILES
1 | 321 nM | – | – | – | – | CCOc1ccccc1O[C@H](c1ccc(I)cc1)[C@@H]1CNCCO1
2 | 64 nM | 716 nM | 646 nM | – | – | CCOc1ccccc1O[C@H](c1ccc(I)cc1)[C@H]1CNCCO1
3 | 53.8 nM | 1460 nM | 2790 nM | 50 | 25 | CCOc1ccccc1O[C@@H](c1ccc(I)cc1)[C@@H]1CNCCO1
4 | 58.2 nM | – | – | – | – | CCOc1ccccc1O[C@@H](c1ccc(I)cc1)[C@H]1CNCCO1
